The values that follow come from article PMC10699038, “Identifying molecular tags selectively retained on the surface of brain endothelial cells to generate artificial targets for therapy delivery” (Fluids and Barriers of the CNS, 2023).

This assay relates to b.End3 cells. Put plainly: Peptide-mediated protein (avidin-FITC/albumin-FITC) delivery to b.End3 cells. In kind it is cell-based, mouse. The settings on record: N-terminal biotin peptide, increasing concentrations, 1 h, 4 °C, avidin-FITC 50 µg/mL, 30 min, fluorescence, 3 independent experiments, triplicate.

Experimental: Confluent endothelial monolayers were treated with increasing peptide concentrations in HBSS (1 h at 4 °C, unless otherwise stated). After removing unbound peptide, cells were either incubated in appropriate cell culture medium (37 °C) for varying time-points, or directly treated with neutravidin-FITC or albumin-FITC (0.83 mM, in HBSS, 30 min at 4 °C). After removing unbound protein with thorough HBSS washes, fluorescence (490/525 em/ex) was quantified with a Spark multimode microplate reader (Tecan) or imaged through confocal microscopy (Additional file 1: Diagram S1a–c).

Turning to HAIYPRH [Tf peptide], the “Avidin delivery to b.End3 cells” value is “lower avidin delivery than CFAG”.
